Values of other authors as cited in EP0984012A2, “Nitric oxide releasing oxindole prodrugs with analgesic and anti-inflammatory properties” (Pfizer Products Inc., priority 1998, dated 2000).

Columns and labels:
[1] = system: experimental gastric ulcers; conditions: rat, daily treatment
[2] = animal models of acute and chronic inflammation; versus parent NSAID
[3] = administered on both an acute and a chronic basis; versus parent NSAID

Compound | healing of experimental gastric ulcers [1] | anti-inflammatory activity [2] | gastric injury [3] | mitochondrial damage (small intestine; in vivo) | macroscopic damage in the small intestine (small intestine; rats, versus flurbiprofen)
O=C(O)Cc1ccccc1Nc1c(Cl)cccc1Cl [diclofenac] | no effect | – | – | – | –
CC(C(=O)OCCCCO[N+](=O)[O-])c1ccc(-c2ccccc2)c(F)c1 (stereo not drawn) [flurbiprofen nitroxybutylester] | – | comparable to that of their parent NSAIDs | markedly less gastric injury than that produced by their parent NSAIDs | associated with mitochondrial damage in vivo | significantly less macroscopic damage in the small intestine than flurbiprofen
O=[N+]([O-])OCC(CO[N+](=O)[O-])O[N+](=O)[O-] [glyceryl trinitrate] | accelerated | – | – | – | –
CC(C(=O)OCCCCO[N+](=O)[O-])c1cccc(C(=O)c2ccccc2)c1 (stereo not drawn) [ketoprofen nitroxybutylester] | – | comparable to that of their parent NSAIDs | markedly less gastric injury than that produced by their parent NSAIDs | – | –
COc1ccc2cc(CCC(C)=O)ccc2c1 [nabumetone] | no effect | – | – | – | –
O=C(Cc1ccccc1Nc1c(Cl)cccc1Cl)OCCCCO[N+](=O)[O-] [nitrofenac, diclofenac-4-nitroxybutylester] | accelerated | comparable to that of their parent NSAIDs | markedly less gastric injury than that produced by their parent NSAIDs | – | –
